The record followed here is patent US20190209539A1, “THIOHYDANTOIN ANDROGEN RECEPTOR ANTAGONISTS FOR THE TREATMENT OF CANCER” (Janssen Pharmaceutica NV, priority 2016, published 2019).

Residue numbers refer to the chain shown, from its start. Values joined by “and” are separate entries in the source; they are usually repeats but may differ in a detail not shown here. Equal entries are not always repeated.

Test [1] has as its target T1, wild-type Androgen Receptor (AR-wt) (Homo sapiens, UniProt P10275).
T1 construct: expressed in transfected cells; host or cells: LNCaP AR (cs) cells with ARE firefly luciferase lentiviral construct
T1 sequence (P10275 1-920): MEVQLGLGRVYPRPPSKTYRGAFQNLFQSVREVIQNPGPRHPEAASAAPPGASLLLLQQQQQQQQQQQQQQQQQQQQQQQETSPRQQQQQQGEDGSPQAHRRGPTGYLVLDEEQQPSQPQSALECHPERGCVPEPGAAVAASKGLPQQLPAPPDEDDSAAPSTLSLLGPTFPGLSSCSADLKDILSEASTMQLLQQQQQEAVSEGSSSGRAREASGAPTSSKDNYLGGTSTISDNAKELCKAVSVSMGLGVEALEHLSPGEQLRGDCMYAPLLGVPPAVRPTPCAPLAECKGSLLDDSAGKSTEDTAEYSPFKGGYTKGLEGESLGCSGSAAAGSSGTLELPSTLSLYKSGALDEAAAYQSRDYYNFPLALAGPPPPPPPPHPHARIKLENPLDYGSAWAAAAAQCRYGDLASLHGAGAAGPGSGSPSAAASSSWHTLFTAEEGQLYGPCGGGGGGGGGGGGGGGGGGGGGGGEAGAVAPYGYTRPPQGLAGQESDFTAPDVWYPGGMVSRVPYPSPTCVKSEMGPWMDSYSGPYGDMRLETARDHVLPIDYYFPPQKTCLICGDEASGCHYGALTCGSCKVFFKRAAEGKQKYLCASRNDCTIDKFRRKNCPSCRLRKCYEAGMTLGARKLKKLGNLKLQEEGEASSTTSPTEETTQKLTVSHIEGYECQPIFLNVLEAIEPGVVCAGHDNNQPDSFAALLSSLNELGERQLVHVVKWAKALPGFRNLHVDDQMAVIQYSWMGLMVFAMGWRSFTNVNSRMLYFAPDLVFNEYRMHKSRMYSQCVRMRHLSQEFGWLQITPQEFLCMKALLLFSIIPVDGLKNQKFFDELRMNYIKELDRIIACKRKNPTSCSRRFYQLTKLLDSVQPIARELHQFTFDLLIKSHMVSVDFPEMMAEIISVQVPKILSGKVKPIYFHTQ
The test is described as follows: LNCaP-AR-wt AG: ARE luciferase reporter assay, agonist mode. The class given is cell-based. The conditions noted are these: maximum % stimulation (agonist response), % of 1 μM R-1881 max. (A reporter such as luciferase makes a cellular process visible.)

Test [2] relates to androgen dependent signaling (androgen sensitive organs, ASO). The test can be described thus: Hershberger Assay. The class given is in vivo, Sprague-Dawley rats. Particulars: p≤0.05, in all 5 organs. The method, then: The effect of AR antagonists on androgen dependent signaling in vivo was assessed using the Hershberger assay. In this assay, peripubertal castrated male Sprague-Dawley rats were administered AR antagonists described herein in the presence of testosterone (0.4 mg/kg testosterone propionate) and the weights of androgen dependent organs measured. Dosing was continued for 10 days and measurements taken 24 h after the last dose. The extent of antagonism of AR and consequent inhibition of organ growth was evaluated by comparison to the castration control. Compounds of Formula (I) were dosed orally QD and an endpoint assessment made by change in weight of 5 androgen sensitive organs (ASO): Paired Cowper's Glands (CG), Seminal Vesicles with Fluids and Coagulating Glands (SVCG), Glans Penis (GP), Ventral Prostate (VP) and Levator Ani-Bulbocavernosus Complex (LABC)). According to assay guidelines, statistically significant suppression of ASO is required in 2 of 5 organs for a compound to be classified as an anti-androgen (analysis was performed by t-test/Mann-Whitney).
Compounds defined herein were administered at the indicated dose (mg/kg) and flutamide (FT), positive control, at 3 mg/kg. […]

In test [3] the target is T2, F876L mutant Androgen Receptor (AR-F876L) (Homo sapiens, UniProt P10275, F877L).
T2 construct: expressed in transfected cells; host or cells: LNCaP F876L cells with ARE firefly luciferase lentiviral construct
T2 sequence (P10275 1-920 F877L): T1 sequence (P10275 1-920) with F877L
The test can be described thus: LNCaP-AR-F876L AG: ARE luciferase reporter assay, agonist mode. The class given is cell-based. The conditions noted are these: maximum % stimulation (agonist response), % of 1 μM R-1881 max.

The subject of the next test is VCaP cells. The test can be described thus: Prostate Cancer Cell Viability Assay-VCaP. The class given is cell-based. Particulars: Homo sapiens, 120 h, 5 days incubation, CellTiter-Glo. On the procedure:
VCaP cells were counted and seeded into black 384-well plates with clear bottoms at a concentration of 125,000 cells per mL in phenol red-free DMEM containing 10% Charcoal Stripped Serum. 16 μL of the suspension was added per well and incubated for 48 h to allow the cells to adhere. After 48 hours, a 12 point serial semilog dilution of each compound was added to the cells in 16 μL at a final concentration of 100 μM to 0.0003 μM. The compounds of Formula (I) were also run in antagonist mode using 30 pM R1881 in which 8 μL of the compound was added to the cells followed by 8 μL of R1881. After 5 days of incubation at 37° C., 16 μL Of CellTiter-Glo (Promega) was added to the cells and the relative luminescence units (RLUs) of each well determined using the Envision. The percent stimulation and % inhibition were determined for each sample and plotted using GraphPad Prism.

A further test deals with LNCaP WT. The test is described as follows: LNCaP Proliferation Assay (LNCaP WT). The class given is cell-based. Particulars: Homo sapiens, 96 h, 4 days, normalized to 0.1 nM R1881 stimulation. The method, then: (§1) LNCaP cells were expanded in RPMI 10% FBS in T150 flasks. The cells were dislodged with 0.25% Trypsin, washed in complete media, centrifuged (300 g, 3 min), and the supernatant aspirated. The cells were resuspended in RPMI phenol-red free media with 1% charcoal-stripped serum (CSS) and counted using a ViCELL (Beckman-Coulter). 7500 cells were added to each well of a white optical bottom 384-well plate and incubated for 2 days at 37° C. 5% CO2. Compound dilutions were prepared in RPMI CSS using 50 mM stock solutions and added to the cells either alone (agonist mode) or in combination with 0.1nM R1881 (antagonist mode). The plates were incubated for 4 days, followed by addition of CellTiter-Glo Luminescent Cell Viability kit reagent (Promega). The plates were placed on a shaker at 3000 rpm for 10 minutes and then read on an EnVision plate reader (Perkin Elmer) using Luminescence assay default settings. The data was analyzed, normalized to 0.1 nM R1881 stimulation, and plotted in GraphPad Prism.

The test system of a further test is LNCaP F876L. The test is described as follows: LNCaP Proliferation Assay (LNCaP F876L). Format: cell-based. The conditions noted are these: Homo sapiens, 96 h, 4 days, normalized to 0.1 nM R1881 stimulation. The method, then: as §1
The target of a further test is rGABA-gated Cl− channel. The test can be described thus: GABA-gated Cl Channel Antagonist Radioligand Binding Assay ([35S]-TBPS, cerebral cortex membranes). More on the design: species or system rat. Particulars: 3 nM [35S]-TBPS. The method, then: GABA-gated Cl Chanel assays were performed at CEREP according to the following method. Membrane homogenates of cerebral cortex (120 μg protein) were incubated for 120 min at 22° C. with 3 nM [^35S]-TBPS in the absence or presence of the test compound in a buffer containing 50 mM Na2HPO4/KH2PO4 (pH 7.4) and 500 mM NaCl. Nonspecific binding was determined in the presence of 20 μM picrotoxinin. Following incubation, the samples were filtered rapidly under vacuum through glass fiber filters (GF/B, Packard) presoaked with 0.3% PEI and rinsed several times with ice-cold 50 mM Tris-HCl using a 96-sample cell harvester (Unifilter, Packard). The filters were dried then counted for radioactivity in a scintillation counter (Topcount, Packard) using a scintillation cocktail (Microscint 0, Packard). The results are expressed as a percent inhibition of the control radio ligand specific binding. The standard reference compound is picrotoxinin, which was tested in each experiment at several concentrations to obtain a competition curve from which its ICso was calculated. In this assay, the following representative compounds disclosed herein had recorded activities at a 10 μM single point concentration in the GABA-gated Cl-Channel Binding Assay.

Another test addresses T3, GR (human) (Homo sapiens, UniProt P04150).
T3 construct: GR (human) (agonist radioligand) IM-9 cells (cytosol); endogenous in cells; host or cells: IM-9 cells (cytosol)
T3 sequence (P04150 1-777): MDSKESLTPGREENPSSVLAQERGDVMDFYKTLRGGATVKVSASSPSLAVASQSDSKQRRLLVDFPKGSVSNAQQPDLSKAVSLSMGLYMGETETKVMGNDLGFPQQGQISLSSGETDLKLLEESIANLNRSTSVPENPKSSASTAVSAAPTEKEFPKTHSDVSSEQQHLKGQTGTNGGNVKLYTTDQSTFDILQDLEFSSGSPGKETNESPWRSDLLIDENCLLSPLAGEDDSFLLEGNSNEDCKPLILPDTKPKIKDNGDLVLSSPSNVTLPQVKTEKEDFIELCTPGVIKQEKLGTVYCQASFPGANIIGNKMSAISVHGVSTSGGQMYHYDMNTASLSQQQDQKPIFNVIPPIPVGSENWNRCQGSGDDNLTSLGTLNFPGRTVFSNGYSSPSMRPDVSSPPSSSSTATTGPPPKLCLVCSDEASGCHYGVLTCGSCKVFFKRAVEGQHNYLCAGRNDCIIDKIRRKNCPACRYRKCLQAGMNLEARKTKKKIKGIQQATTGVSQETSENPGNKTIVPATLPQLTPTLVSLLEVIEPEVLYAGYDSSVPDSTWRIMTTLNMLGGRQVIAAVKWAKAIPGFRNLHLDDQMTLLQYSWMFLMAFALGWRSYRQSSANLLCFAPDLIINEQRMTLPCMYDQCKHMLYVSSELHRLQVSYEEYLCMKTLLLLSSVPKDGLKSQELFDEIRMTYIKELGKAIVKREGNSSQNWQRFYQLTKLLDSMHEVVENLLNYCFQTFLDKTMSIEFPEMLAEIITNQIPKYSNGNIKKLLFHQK
The test can be described thus: Radioligand binding to GR ([3H]dexamethasone, IM-9 cells cytosol). On the procedure:
Radioligand binding assays were performed with the cell extracts and ligands as detailed below. Complete methodology is contained within the cited publications. Kd values were determined by Non-Specific Incubation Detection Method.
GR (human) (agonist radioligand) IM-9 cells (cytosol) [^3H]dexamethasone 1.5 nM 1.5 nM triamcinolone (10 μM) 6 h 4° C. Scintillation counting (Clark, A. F et al. (1996) Invest. Ophtalmol. Vis. Sci., 37: 805-813). ER (nonselective) (human) (agonist radioligand) MCF-7 cells (cytosol) [^3H]estradiol 0.4 nM 0.2 nM 17-β-estradiol (6 μM) 20 h 4° C. Scintillation counting (Parker, G. J et al.(2000) J. Biomol. Screen., 5: 77-88).
The results are expressed as a percent of control specific binding measured specific binding *100 control specific binding and as a percent inhibition of control specific binding 100-(measured specific binding*100) control specific binding obtained in the presence of compoundn.
The IC50 values (concentration causing a half-maximal inhibition of control specific binding) and Hill coefficients (nH) were determined by non-linear regression analysis of the competition curves generated with mean replicate values using Hill equation curve fitting.
The inhibition constants (Ki) were calculated using the Cheng Prusoff equation:
wherein L=concentration of radioligand in the assay, and KD=affinity of the radioligand for the receptor. […]

`CN1CCN(CCCc2ccc(N3C(=S)N(c4cnc(C#N)c(C(F)(F)F)c4)C(=O)C34CCC4)cc2)CC1` [Cpd 43, 5-[8-[4-[3-(4-methylpiperazin-1-yl)propyl]phenyl]-5-oxo-7-thioxo-6,8-diazaspiro[3.4]octan-6-yl]-3-(trifluoromethyl)pyridine-2-carbonitrile]: the “LNCaP-AR-wt AG MAX % Stim” value in test [1] was determined as 0.7%. In test [2], the “reduction in ASO versus TP control” value is given as “significant reduction”. Also, the “LNCaP-AR-F876L AG MAX % Stim” value in test [3] turned out to be 0.4%.
With `CN1CCC(Oc2ccc(N3C(=S)N(c4cnc(C#N)c(C(F)(F)F)c4)C(=O)C34CCC4)cc2)CC1` [Cpd 85, 5-[8-[4-[(1-methyl-4-piperidyl)oxy]phenyl]-5-oxo-7-thioxo-6,8-diazaspiro[3.4]octan-6-yl]-3-(trifluoromethyl)pyridine-2-carbonitrile], the IC50 (as a rule, the point on the concentration scale where inhibition reaches its midpoint) in the test on VCaP cells amounted to 0.076 µM; with LNCaP WT, 3.29 µM; in the test with LNCaP F876L, 8.87 µM; at rGABA-gated Cl− channel, 13 µM; on GR (human) ([3H]-dexamethasone 1.5 nM, IM-9 cytosol), 20 µM. Besides, the “% inhibition @ 10 μM” value in the test with rGABA-gated Cl− channel (10 μM single point) was 42% and 49%. At GR (human) (Cheng Prusoff, [3H]-dexamethasone), the Ki (in general, the equilibrium dissociation constant of an inhibitor or competing ligand from its target) turned out to be 9.9 µM.
